Test results published in article PMC7998760, “Solubility, Permeability, Anti-Inflammatory Action and In Vivo Pharmacokinetic Properties of Several Mechanochemically Obtained Pharmaceutical Solid Dispersions of Nimesulide” (Molecules, 2021).

Tests used:
[1] = Description: In this study, the stability constant and stoichiometry of the complex were calculated using Benesi-Hildebrant diagram (Equation (1)):Δδmax/Δδ − 1 = 1/[CD]^n × 1/K(1) where K is the stability constant of the complex, and Δδ is change of chemical shift.
Measurement of K values at different temperatures at 30–50 °C allows us to calculate the thermodynamic parameters of the HP-β-CD complex. From the dependence of R × lnK vs. 1/T using formulas (Equation (2)) and (Equation (3)), one can calculate the main thermodynamic parameters of complexation: the change in the Gibbs energy, enthalpy, and entropy:R × lnK = −ΔH^0/T + ΔS^0(2) ΔG^0 = ΔH^0 − TΔS^0(3)
^1H-NMR spectra were recorded on an Avance III 500 MHz spectrometer (Bruker, Rheinstetten, Germany) in D2O and CD3OD (99.8%, Sigma-Aldrich, Moscow, Russia) solutions as well as in their mixture. Spin-spin relaxation time T2 was measured by the Carr-Purcell-Meiboom-Gill (CPMG) pulse sequence.

[2] = Pharmacokinetic study after a single per os administration; format: in vivo, CD-1 mice
Description: (§1) CD-1 mice weighing 20–25 g were obtained from the vivarium of the Institute of Cytology and Genetic SB RAS. Animals were kept under standard conditions with free access to water and food with humidity and temperature-controlled rooms with light and dark 12 h cycles.
Mice were randomized by weight and divided into groups and deprived of food for 12 h prior to the experiment. […] Complexes were dissolved in distilled water. […] Blood samples were withdrawn after decapitation at 5, 15, 30, 45, 60, 90 120, 180 and 300 min (n = 5 for each time point) after introduction. Then, all the blood samples were centrifuged for 15 min at 1640× g and the supernatant serum fraction was transferred to empty tubes and kept frozen at −20 °C prior to analysis. The preparation of a blood sample was carried out according to the method described by. Briefly, the mouse plasma sample (0.2 mL) was transferred into glass test tube. 3 mL mixture solvent of ethyl acetate and hexane (90:10%, v/v) was added to the tubes and was vortexed for 3 min. Following a centrifugation for 7 min, 1.5 mL of organic phase was removed to another tube and evaporated. The dry residue was reconstituted with 100 μL of acetonitrile, vortexed for 30 s and 20 μL of the mixture was injected into the chromatograph. However, in contrast with noted reference we use HPLC conditions as described in HPLC analyses of this section.

histamine edema = assay: Anti-inflammatory study, histamine edema model; format: in vivo, CD-1 mice; settings: oral single administration, doses 5, 10, 20 mg/kg of NIM, p < 0.05 compare to control
Description: as §1
“Histamine swelling” was reproduced by introducing of 0.05 mL of 0.1% histamine solution under aponeurosis of the hind paw. The test compounds were administered by oral gavage 1 h before administration of inflammatory agent. The swelling degree was evaluated after 5 h by comparison the legs mass with inflammatory agent (m1) and without it (m2). The degree of inflammation (ID) for each mouse was calculated by the following formula (Equation (6)): (6) ID=m1−m2/m2×100%
The statistical analysis was performed using Mann–Whitney U test. Data shown as Mean ± SEM. p < 0.05 was considered to be statistically significant.

[3] = alcohol solution, 400 nm
[4] = CD-1, mouse, serum, oral, 20 mg/kg
[5] = single per os, NIM dose 20 mg/kg, mice

CS(=O)(=O)Nc1ccc([N+](=O)[O-])cc1Oc1ccccc1 [NIM, N-(4-nitro-2-phenoxyphenyl)methanesulfonamide]
stability constant of the complex with HP-β-CD, cycle A ([1]; 30 °C, 1:1 complex): 140 M⁻¹ | stability constant of the complex with HP-β-CD, cycle B ([1]; 30 °C, 1:1 complex): 490 M⁻¹ | TΔS^0 of complexation with HP-β-CD, cycle A ([1]; 303 K): -6.7 ± 0.3 kcal/mol | TΔS^0 of complexation with HP-β-CD, cycle B ([1]; 303 K): -8.2 ± 0.5 kcal/mol | ΔG^0 of complexation with HP-β-CD, cycle B ([1]; 303 K): -3.0 kcal/mol | ΔH^0 of complexation with HP-β-CD, cycle A ([1]; 303 K): -10.5 ± 0.5 kcal/mol | ΔH^0 of complexation with HP-β-CD, cycle B ([1]; 303 K): -12.2 ± 1.0 kcal/mol | Tmax [2, 4]: 0.572 h | half-life [2, 4]: 1.48 ± 0.347 h | AUC 0-inf_obs [2, 5]: 3978.88 ± 242.62 mkg/mL*min | Cmax [2, 5]: 38.43 ± 3.25 mkg/mL | dose of NIM with significant anti-inflammatory effect (histamine edema): 20 mg/kg | stability constant of the chelate complex with magnesium ions [3]: 22,300 ± 7400 M^−1
